Measured values taken from article PMC9229798, “Antioxidant Activity and Cytotoxicity of Aromatic Oligosulfides” (Molecules, 2022).
“And” between values parts separate entries of the source, which are not always exact repeats. Equal values may be shown once. Read-outs that look alike come from different tables or passages of the source.

Assays:
[1] = FRAP assay (ferric reducing antioxidant power); settings: Trolox equivalents
Experimental: The assessment of antioxidant activity was also carried out by the FRAP (Ferric Reduction Aantioxidant Power) method based on electron transfer similar to the CUPRAC method, while in the DPPH test, the reaction proceeded according to the HAT mechanism. Antioxidant activity of compounds 1–6 was also calculated in Trolox equivalents (TEACFRAP). […] The lowest activity was obtained for trisulfide 1 and disulfide 5, which are characterized by the absence of functional groups in the benzene ring. The TEACFRAP values for disulfide 2 with a methoxy group and compounds 4 and 6 with a phenolic fragment differed insignificantly and amounted to 0.58 and 0.69 Trolox equivalents.
The sample solution (0.1 mL) was mixed with 0.1 mL phosphate buffer (0.2 M, pH 6.6) and 0.1 mL potassium ferricyanide (1%). For each test compound different concentrations in EtOH were used (5, 10, 25, 50, 100, 200 and 250 μM). The resulting mixture was incubated at 50 °C for 20 min. After the incubation period, 0.1 mL trichloroacetic acid (10%), 0.5 mL deionized water, and 0.1 mL ferric chloride (0.1%) were added to the mixture. The sample absorbance was read at 700 nm with a 96-cell microplate spectrophotometer. The reduction of Fe (III) to Fe (II) could be expressed as % inhibition or equivalent of a standard compound (e.g., Trolox).

[2] = Antiradical activity, quinoid oxidation (autoxidation) of adrenaline; settings: adrenaline autoxidation in alkaline buffer, compound initial 25 µM
SOD [3] = test: SOD-protective activity, cytosolic fraction of liver homogenate; assay type: biochemical, Russian sturgeon; settings: adrenaline oxidation with biopreparation, compound initial 25 µM
Source text: Superoxide dismutase (SOD) is present in almost all aerobic cells and extracellular fluids and is able to inhibit the accumulation of adrenochrome by intercepting O2^–•. The process of splitting O2^–• by SOD into O2 and H2O2 occurs in the body, which is facilitated by the presence of metal ions Cu, Zn, Mn and Fe, playing an important role in lipid peroxidation. […] This system is also suitable for determining the activity of the endogenous enzyme–antioxidant SOD responsible for the utilization of O2^–• [43, 44]. The reaction sequence of adrenaline autoxidation with the adrenochrome formation was described earlier.
SOD-protective activity of the biopreparation was the ability to utilize the superoxide anion radical O2^–•, as determined by the method of Sirota. A cytosolic fraction of the Russian sturgeon liver homogenate was used as the source of SOD. First, the sturgeon liver was washed with cold 0.2 M Tris (tris (hydroxymethyl) aminomethane) buffer (pH 7.8) to remove any traces of blood. All of the procedures were performed at a temperature of 0–4 °C. Next, a homogenate was obtained using a Potter homogenizer (Thomas Scientifc, Swedesboro, NJ, USA) in 0.2 M Tris buffer at a ratio of 1:10. The homogenate was then centrifuged for 10 min at 1000× g to remove partially destroyed cells and nuclei. The resulting supernatant contained the enzymes of the cytosolic fraction of the liver homogenate, including the SOD. Here, 10 µL of the biopreparation was added to a cuvette with 200 µL of bicarbonate buffer (pH 10.65), 10 µL of the tested compound (initial concentrations of these compounds 25 µM) and 10 µL of 0.1% adrenaline solution and was thoroughly and quickly mixed. The rate of adrenaline oxidation without and in the presence of the biopreparation was evaluated by the change in optical density, measured at 347 nm for 3 min. The decrease in the rate of the process in the presence of the biopreparation was used to characterize the SOD-protective activity.

A-549 = test: Annexin V/Dead Cell assay; assay type: cell-based, human; settings: A-549, 2 × IC50, 48 h
Source text: Apoptosis or programmed cell death is an important and active regulatory pathway of cell growth and proliferation. Cells respond to specific induction signals by initiating intracellular processes that result in characteristic physiological changes. Among these are externalization of phosphatidylserine (PS) to the cell surface, cleavage and degradation of specific cellular proteins, compaction and fragmentation of nuclear chromatin, and loss of membrane integrity. Phosphatidylserine (PS) is normally located in the inner part of the cell membrane. In the initial stage of apoptosis, the PS residues which translocated to the extracellular are detected by Annexin V, which is a calcium-dependent phospholipid-binding protein with a high affinity for PS. Annexin V flow cytometric assay was used to evaluate the compounds’ ability to induce apoptosis and influence on cell death. HCT-116 colon carcinoma and A-549 lung adenocarcinoma cells were treated by disulfides 2 and 3.
HCT-116 (colon carcinoma) and A-549 (lung carcinoma) cells (1 × 10^6) were seeded in a six-well plate and were incubated for 24 h. […] After incubation, the cells were harvested by trypsinization, precipitated by centrifugation (3000 rpm), washed with PBS, recentrifuged, and the buffer was removed. DMEM was added to achieve a cell concentration of 400–1000 cells/µL. The Muse Annexin V & Dead Cell Kit reagent (100 µL) was added to the cells and […] for 20 min at room temperature in the dark. The results were recorded on a Muse Cell Analyzer flow cytometer (Merck, Rahway, NJ, USA).

[4] = set-up: method as in doi:10.3906/kim-1904-40; settings: PASS, cited from earlier work
MCF-7 = system: MCF-7; set-up: method as in doi:10.3906/kim-1904-40; settings: CLC-Pred, cited from earlier work; for Cytotoxicity MCF-7, Pi: probability of lack of activity; for Cytotoxicity MCF-7, Pa: probability of presence of activity
[5] = set-up: method as in doi:10.3906/kim-1904-40; settings: Trolox equivalents; cited from earlier work
[6] = ferrozine–Fe2+ complex formation; cited from earlier work
[7] = set-up: method as in doi:10.3906/kim-1904-40; settings: adrenaline autoxidation in alkaline buffer; cited from earlier work
SOD [8] = system: SOD; set-up: method as in doi:10.3906/kim-1904-40; settings: adrenaline oxidation with biopreparation; cited from earlier work
[9] = set-up: method as in doi:10.1016/j.arabjc.2021.103068; settings: 1 mmol/L additive, 65 °C; cited from earlier work
[10] = set-up: method as in doi:10.1016/j.arabjc.2021.103068; settings: oleic acid, 1 mmol/L additive, 65 °C; cited from earlier work
[11] = set-up: method as in doi:10.1016/j.arabjc.2021.103068; settings: all stages of LPO; cited from earlier work
[12] = probability of lack of activity
[13] = probability of presence of activity

Row | SMILES | TEAC FRAP [1] | Antiradical Activity, % Inhibition [2] | SOD Activity of Liver Sturgeon, % Inhibition (SOD [3]) | Early Apop. (A-549) | total apoptotic cells (A-549) | Antidote, Pi [4, 12] | Free radical scavenger, Pi [4, 12] | Nitric oxide scavenger, Pi [4, 12] | Oxygen scavenger, Pi [4, 12] | Antidote, Pa [4, 13] | Free radical scavenger, Pa [4, 13] | Nitric oxide scavenger, Pa [4, 13] | Oxygen scavenger, Pa [4, 13] | Cytotoxicity MCF-7, Pi (MCF-7) | Cytotoxicity MCF-7, Pa (MCF-7) | TEAC CUPRAC [5] | FIC, % of Inhibition [6] | Antiradical Activity, % Inhibition [7] | SOD Activity of Liver Sturgeon, % Inhibition (SOD [8]) | LOOH, k0/k1 (relative rate constant of LOOH formation) [9] | other results
1 | c1ccc(SSSc2ccccc2)cc1 [Compound 1, diphenyl trisulfide] | 0.06 ± 0.01 | 30 ± 1.9% | 41 ± 2.7% |  |  |  |  |  |  |  |  |  |  |  |  |  |  |  |  |  | 
2 | COc1ccccc1SSc1ccccc1OC [Compound 2, bis(2-methoxyphenyl) disulfide] | 0.58 and 0.58 ± 0.05 | 50 ± 3.1% | 60 ± 3.3% | 24.0% | 25.2% |  |  |  |  |  |  |  |  |  |  |  |  |  |  |  | 
3 | COc1ccc(SSc2ccc(OC)c(OC)c2)cc1OC [Compound 3, bis(3,4-dimethoxyphenyl) disulfide] |  |  |  | 38.2% | 42.6% |  |  |  |  |  |  |  |  |  |  |  |  |  |  |  | 
4 | Oc1ccc(SSc2ccc(O)cc2)cc1 [Compound 4, 4,4′-dihydroxydiphenyl disulfide] | 0.69 and 0.69 ± 0.07 | 36 ± 2.3% | 75 ± 5.6% |  |  |  |  |  |  |  |  |  |  |  |  |  |  |  |  |  | 
5 | c1ccc(SSc2ccccc2)cc1 [Compound 5, diphenyl disulfide] | 0.06 ± 0.05 |  |  |  |  | 0.078 | 0.056 | 0.013 | 0.018 | 0.228 | 0.230 | 0.274 | 0.621 | 0.005 | 0.882 | 0.10 ± 0.01 | 73.7 ± 2.1 % | 56 ± 2.9 % | 61 ± 4.8 % | 0.79 ± 0.11 | TBARS, % Inhibition [10]: 24.6 ± 0.29 %; anti-/prooxidant effect in liver LPO [11]: prolonged prooxidant activity
6 | CC(C)(C)c1cc(SSc2cc(C(C)(C)C)c(O)c(C(C)(C)C)c2)cc(C(C)(C)C)c1O [Compound 6, bis(3,5-di-tert-butyl-4-hydroxyphenyl) disulfide] | 0.69 and 0.69 ± 0.02 |  |  |  |  | 0.027 | 0.012 | 0.012 | 0.044 | 0.317 | 0.473 | 0.278 | 0.519 | 0.082 | 0.403 | 2.04 ± 0.05 | 28.9 ± 1.3 % | 37 ± 4.8 % | 85 ± 3.0 % | 0.49 ± 0.05 | Antioxidant, Pi [4, 12]: 0.005; Antioxidant, Pa [4, 13]: 0.549; TBARS, % Inhibition [10]: 73.1 ± 1.30 %; anti-/prooxidant effect in liver LPO [11]: pronounced antioxidant effect
